Test results from article PMC12637021, “Talin–tensin3 interactions regulate fibrillar adhesion formation and tensin3 phase separation” (The Journal of Cell Biology, 2025).

Tested on: tensin3 IDR (mCh-IDR)
Assay: mitochondrial pulldown, talin constructs with mCh-IDR
Format: binding, Homo sapiens
Conditions: TLN1-E1770A-cBAK vs TLN1-WT-cBAK; HEK293T; three replicates
Protocol: Mitochondrial isolation from HEK293T cells was performed after 24 h of transient expression using a combined method of Qproteome Mitochondria Isolation Kit (QIAGEN) and MACS Mitochondria Isolation Kit (Miltenyi). Cells were collected in ice-cold PBS and aliquoted for the preparation of the whole-cell lysate (wcl) fraction (30%) and the mitochondrial fraction (70%). Cell lysis and homogenization of the mitochondrial fraction were performed according to the manufacturer’s instructions (QIAGEN). Magnetic anti-TOM22 microbeads (Miltenyi) were used to label mitochondria in the homogenized mitochondrial fraction for 1 h at 4°C. The labeled mitochondria were separated from a magnetic column before elution with ice-cold separation buffer (Miltenyi). The eluted mitochondria were washed and centrifuged according to the Miltenyi’s instructions. RIPA buffer (ChromoTek) was used for protein extraction from the wcl and purified mitochondria. Samples were stored at −80°C prior to western blotting.
Samples were mixed with sample buffer (4X, Invitrogen) supplemented with reducing agent (10X, Invitrogen). […] Signals were detected using goat anti-mouse IgG conjugated to IRDye 680RD (1:15,000, ab216776; Abcam) and goat anti-rabbit IgG conjugated to IRDye 800CW (1:15000, ab216773; Abcam) secondary antibodies. […] Western blot analysis and quantification were performed using ImageJ software.

TLN1-E1770A-cBAK: constitutively active talin1 construct
increase in IDR pulldown vs WT talin: 50%
